The text below walks through data of PMC9851200, “Multiparameter phenotypic screening for endogenous TFEB and TFE3 translocation identifies novel chemical series modulating lysosome function” (Autophagy, 2022).

Common to all, as to type: binding
In experiment [1] the target is kinases (KINOMEscan panel) (Homo sapiens, UniProt Q96NX5). To be noted: CAMK1G; NEW KINOMEscan.
For experiment [2], the target named is kinases (KINOMEscan panel) (Homo sapiens, UniProt P10721, D816V). To be noted: kinase KIT(D816V); NEW KINOMEscan.
Sequence of kinases (KINOMEscan panel) (Homo sapiens, UniProt P10721, D816V) (P10721 26-976 D816V): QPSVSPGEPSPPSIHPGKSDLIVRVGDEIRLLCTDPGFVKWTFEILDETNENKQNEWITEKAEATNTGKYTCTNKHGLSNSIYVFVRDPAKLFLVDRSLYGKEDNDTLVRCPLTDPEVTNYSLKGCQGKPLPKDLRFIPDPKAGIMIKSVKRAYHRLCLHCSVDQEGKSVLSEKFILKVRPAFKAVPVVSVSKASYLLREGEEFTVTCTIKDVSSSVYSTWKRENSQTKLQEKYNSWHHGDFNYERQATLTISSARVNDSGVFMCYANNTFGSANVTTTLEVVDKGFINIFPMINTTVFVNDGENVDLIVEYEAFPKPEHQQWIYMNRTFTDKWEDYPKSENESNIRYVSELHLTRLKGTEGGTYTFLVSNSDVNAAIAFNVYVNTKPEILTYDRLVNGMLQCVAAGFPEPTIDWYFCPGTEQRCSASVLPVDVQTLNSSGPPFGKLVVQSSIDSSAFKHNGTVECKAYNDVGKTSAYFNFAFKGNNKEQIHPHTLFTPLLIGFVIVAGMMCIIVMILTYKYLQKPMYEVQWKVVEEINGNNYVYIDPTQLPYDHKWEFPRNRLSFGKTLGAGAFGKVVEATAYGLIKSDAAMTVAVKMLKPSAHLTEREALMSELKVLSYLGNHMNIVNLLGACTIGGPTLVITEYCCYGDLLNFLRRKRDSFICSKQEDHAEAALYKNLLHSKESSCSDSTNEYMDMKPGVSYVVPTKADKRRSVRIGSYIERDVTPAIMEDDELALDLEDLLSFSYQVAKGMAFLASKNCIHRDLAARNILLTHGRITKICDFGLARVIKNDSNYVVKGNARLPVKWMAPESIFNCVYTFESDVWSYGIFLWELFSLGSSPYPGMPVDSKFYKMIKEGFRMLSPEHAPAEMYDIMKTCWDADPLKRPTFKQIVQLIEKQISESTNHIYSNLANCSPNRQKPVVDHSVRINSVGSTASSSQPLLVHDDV
Experiment [3] addresses kinases (KINOMEscan panel) (Homo sapiens, UniProt Q5S007, G2019S). To be noted: NEW KINOMEscan.
The target of experiment [4] is T1, kinases (KINOMEscan panel) (Homo sapiens, UniProt O14936).
T1 sequence (O14936 1-926): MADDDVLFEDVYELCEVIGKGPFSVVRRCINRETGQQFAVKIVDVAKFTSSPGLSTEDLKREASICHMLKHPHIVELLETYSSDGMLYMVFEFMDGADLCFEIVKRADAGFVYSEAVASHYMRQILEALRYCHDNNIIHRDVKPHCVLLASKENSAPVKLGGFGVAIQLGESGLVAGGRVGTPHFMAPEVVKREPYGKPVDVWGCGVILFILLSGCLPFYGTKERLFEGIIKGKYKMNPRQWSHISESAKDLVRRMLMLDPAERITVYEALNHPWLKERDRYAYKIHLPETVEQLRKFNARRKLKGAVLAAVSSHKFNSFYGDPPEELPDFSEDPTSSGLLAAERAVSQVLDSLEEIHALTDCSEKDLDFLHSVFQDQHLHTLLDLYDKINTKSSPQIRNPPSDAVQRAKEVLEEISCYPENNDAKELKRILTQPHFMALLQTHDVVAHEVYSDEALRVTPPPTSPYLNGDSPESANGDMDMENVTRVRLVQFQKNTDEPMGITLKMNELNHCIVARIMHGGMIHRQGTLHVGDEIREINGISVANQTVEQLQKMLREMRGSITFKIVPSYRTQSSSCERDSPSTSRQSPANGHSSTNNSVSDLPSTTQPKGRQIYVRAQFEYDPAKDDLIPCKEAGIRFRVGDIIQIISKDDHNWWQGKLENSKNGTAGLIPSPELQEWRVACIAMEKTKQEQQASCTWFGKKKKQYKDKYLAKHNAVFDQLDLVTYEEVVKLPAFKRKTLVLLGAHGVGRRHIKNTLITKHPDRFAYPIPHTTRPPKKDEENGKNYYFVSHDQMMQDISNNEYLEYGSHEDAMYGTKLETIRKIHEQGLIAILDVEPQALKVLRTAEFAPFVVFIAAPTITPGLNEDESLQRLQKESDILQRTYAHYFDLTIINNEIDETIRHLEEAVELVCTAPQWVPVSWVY
To be noted: kinase CASK; NEW KINOMEscan.

Experiment [5] addresses kinases (KINOMEscan panel) (Homo sapiens, UniProt Q9BQI3).
The target of experiment [6] is T2, kinases (KINOMEscan panel) (Homo sapiens, UniProt P29322).
T2 sequence (P29322 28-1005): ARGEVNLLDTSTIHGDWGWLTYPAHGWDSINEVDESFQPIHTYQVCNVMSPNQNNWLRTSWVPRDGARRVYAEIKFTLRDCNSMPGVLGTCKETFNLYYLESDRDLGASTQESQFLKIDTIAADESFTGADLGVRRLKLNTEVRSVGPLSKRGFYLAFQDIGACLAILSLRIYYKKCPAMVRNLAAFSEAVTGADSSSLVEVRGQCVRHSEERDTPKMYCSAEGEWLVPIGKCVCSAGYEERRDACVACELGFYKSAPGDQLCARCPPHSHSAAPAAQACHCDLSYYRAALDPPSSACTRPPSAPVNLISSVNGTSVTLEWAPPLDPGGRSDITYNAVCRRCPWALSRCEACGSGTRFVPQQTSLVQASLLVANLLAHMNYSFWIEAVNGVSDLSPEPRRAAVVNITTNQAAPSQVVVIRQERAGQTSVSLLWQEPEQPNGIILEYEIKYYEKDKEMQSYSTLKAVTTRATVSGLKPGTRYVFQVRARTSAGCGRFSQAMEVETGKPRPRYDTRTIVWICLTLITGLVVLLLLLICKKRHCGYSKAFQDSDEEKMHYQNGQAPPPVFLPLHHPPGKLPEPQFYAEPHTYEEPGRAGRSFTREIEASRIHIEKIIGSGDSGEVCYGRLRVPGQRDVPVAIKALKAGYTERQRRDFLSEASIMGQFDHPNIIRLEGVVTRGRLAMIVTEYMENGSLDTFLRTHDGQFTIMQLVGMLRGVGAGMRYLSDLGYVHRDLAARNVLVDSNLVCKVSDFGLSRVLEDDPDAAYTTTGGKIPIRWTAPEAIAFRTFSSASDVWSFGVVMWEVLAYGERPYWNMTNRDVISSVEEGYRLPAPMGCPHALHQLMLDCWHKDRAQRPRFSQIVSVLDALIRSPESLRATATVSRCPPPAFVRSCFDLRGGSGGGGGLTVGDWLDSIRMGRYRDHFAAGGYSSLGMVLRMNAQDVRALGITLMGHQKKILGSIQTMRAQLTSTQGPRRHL
To be noted: kinase EPHA8; NEW KINOMEscan.

The target in experiment [7] is T3, kinases (KINOMEscan panel) (Homo sapiens, UniProt Q86YV6).
T3 sequence (Q86YV6 1-388): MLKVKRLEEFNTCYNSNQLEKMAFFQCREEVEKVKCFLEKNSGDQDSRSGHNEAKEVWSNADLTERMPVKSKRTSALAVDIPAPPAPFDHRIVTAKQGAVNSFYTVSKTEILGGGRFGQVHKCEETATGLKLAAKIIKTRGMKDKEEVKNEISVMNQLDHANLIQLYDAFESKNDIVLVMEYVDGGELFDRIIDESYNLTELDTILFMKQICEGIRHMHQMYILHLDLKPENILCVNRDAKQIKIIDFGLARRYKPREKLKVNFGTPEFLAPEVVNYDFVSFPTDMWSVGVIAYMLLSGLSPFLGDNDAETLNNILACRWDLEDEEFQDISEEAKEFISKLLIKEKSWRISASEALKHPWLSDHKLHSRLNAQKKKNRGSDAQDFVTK
To be noted: kinase MYLK4; NEW KINOMEscan.

For experiment [8], the target named is kinases (KINOMEscan panel) (Homo sapiens, UniProt Q9P286). To be noted: kinase PAK5; NEW KINOMEscan.
Sequence of kinases (KINOMEscan panel) (Homo sapiens, UniProt Q9P286) (Q9P286 whole entry): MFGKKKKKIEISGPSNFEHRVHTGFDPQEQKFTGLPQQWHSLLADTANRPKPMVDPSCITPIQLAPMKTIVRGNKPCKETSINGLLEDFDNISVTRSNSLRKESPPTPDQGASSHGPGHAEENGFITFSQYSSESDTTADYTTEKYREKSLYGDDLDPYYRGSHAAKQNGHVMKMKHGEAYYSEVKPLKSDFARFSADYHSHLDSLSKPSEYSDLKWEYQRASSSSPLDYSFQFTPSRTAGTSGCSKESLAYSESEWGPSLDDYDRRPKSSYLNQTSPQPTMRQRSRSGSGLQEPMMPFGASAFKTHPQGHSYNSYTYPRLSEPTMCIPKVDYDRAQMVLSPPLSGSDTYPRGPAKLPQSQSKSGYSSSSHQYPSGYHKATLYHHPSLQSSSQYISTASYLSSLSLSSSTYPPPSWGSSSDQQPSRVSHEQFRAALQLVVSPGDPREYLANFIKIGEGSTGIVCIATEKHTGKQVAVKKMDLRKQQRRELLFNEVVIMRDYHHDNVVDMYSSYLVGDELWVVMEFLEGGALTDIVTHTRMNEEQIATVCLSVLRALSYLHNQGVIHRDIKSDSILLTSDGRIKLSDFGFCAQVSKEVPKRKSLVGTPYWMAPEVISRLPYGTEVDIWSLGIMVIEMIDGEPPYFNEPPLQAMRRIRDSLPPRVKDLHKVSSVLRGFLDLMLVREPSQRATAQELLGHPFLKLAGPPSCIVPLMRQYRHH

Sequence of kinases (KINOMEscan panel) (Homo sapiens, UniProt Q5S007, G2019S) (Q5S007 whole entry G2019S): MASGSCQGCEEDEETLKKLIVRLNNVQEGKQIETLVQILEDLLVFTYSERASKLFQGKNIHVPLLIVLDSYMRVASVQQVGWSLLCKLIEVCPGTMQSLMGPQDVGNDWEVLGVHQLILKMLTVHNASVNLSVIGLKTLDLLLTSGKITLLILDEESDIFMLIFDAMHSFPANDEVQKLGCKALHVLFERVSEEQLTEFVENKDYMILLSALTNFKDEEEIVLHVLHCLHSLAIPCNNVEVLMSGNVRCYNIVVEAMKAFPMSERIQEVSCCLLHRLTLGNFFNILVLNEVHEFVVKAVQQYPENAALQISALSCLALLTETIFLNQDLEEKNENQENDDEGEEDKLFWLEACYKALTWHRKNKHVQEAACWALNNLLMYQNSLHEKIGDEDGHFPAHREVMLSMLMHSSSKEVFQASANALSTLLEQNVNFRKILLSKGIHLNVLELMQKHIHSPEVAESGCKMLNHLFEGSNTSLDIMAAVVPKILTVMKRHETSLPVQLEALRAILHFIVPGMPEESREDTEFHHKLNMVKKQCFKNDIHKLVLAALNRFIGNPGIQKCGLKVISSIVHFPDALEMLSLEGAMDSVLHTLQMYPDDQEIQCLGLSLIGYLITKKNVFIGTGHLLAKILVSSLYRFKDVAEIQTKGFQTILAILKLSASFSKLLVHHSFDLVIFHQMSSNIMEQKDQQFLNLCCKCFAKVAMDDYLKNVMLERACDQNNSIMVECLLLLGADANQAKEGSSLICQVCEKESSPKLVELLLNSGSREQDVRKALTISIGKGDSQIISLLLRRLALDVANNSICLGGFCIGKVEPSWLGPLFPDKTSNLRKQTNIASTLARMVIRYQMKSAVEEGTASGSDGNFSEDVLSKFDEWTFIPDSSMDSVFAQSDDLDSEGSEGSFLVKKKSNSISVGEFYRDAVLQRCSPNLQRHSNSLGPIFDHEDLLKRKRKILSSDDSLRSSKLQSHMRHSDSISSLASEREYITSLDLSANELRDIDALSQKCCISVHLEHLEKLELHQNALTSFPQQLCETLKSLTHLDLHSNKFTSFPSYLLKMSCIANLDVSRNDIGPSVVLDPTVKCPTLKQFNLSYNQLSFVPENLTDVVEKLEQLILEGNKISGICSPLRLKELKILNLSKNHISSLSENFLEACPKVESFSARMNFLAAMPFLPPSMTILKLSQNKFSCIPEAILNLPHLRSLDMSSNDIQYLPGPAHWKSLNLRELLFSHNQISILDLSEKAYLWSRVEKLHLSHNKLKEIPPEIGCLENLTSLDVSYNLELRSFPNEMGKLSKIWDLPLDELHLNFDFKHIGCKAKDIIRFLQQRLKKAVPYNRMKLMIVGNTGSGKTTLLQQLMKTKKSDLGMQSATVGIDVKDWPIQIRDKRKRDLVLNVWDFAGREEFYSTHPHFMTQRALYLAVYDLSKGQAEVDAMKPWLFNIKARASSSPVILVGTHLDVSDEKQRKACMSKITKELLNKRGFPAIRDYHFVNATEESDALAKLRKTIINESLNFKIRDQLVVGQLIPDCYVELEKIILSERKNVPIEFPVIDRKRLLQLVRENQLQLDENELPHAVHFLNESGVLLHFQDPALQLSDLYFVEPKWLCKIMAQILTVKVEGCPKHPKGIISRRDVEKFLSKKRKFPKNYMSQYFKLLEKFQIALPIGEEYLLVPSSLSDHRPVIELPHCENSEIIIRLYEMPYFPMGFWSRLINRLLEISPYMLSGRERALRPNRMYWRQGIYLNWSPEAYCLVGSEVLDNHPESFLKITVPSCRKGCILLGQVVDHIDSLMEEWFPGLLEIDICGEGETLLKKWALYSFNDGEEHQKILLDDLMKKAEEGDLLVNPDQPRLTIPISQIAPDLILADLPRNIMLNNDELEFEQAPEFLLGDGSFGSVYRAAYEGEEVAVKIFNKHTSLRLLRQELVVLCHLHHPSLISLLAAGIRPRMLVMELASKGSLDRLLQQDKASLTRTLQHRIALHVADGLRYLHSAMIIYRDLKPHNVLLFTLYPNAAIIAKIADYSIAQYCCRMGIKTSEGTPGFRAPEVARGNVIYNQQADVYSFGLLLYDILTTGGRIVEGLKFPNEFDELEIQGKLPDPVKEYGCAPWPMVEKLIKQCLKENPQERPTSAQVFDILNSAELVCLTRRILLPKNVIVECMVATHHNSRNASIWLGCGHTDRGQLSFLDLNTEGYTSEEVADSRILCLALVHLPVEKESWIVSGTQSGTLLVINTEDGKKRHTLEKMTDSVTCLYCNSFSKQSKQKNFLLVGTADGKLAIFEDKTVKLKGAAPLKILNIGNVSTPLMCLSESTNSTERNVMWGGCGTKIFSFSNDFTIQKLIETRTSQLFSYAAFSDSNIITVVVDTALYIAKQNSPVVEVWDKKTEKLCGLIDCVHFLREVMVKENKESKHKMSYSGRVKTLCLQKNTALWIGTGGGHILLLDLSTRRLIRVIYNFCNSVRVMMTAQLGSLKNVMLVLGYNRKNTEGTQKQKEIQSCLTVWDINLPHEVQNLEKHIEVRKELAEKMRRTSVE
Sequence of kinases (KINOMEscan panel) (Homo sapiens, UniProt Q9BQI3) (Q9BQI3 whole entry): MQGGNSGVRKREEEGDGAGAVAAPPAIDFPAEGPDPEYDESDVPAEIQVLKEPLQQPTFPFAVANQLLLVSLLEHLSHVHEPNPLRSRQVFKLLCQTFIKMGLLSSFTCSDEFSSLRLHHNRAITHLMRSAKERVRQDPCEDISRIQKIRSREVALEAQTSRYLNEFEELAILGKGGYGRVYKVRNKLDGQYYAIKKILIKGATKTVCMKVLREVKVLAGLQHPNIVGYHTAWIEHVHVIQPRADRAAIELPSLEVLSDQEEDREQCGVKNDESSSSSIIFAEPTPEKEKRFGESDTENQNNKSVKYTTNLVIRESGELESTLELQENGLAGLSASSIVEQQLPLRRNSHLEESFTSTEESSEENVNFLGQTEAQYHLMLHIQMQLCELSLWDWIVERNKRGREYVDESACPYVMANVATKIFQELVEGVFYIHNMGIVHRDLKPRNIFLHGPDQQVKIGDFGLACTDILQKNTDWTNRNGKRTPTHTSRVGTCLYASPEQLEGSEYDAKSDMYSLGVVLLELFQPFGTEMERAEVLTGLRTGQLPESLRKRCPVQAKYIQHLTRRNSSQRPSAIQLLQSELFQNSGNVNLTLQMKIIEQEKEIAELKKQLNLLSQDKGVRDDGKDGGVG

With `Cc1cccc(-c2nc(N(C)c3ccc4ncsc4c3)c3ccccc3n2)n1` [NK-161], the “KINOMEscan CAMK1G” value in experiment [1] is reported as 0. Besides, in experiment [2], the “KINOMEscan KIT(D816V)” value was 7. The “KINOMEscan LRRK2(G2019S)” value in experiment [3] is on record as 31. The “KINOMEscan CASK” value in experiment [4] came to 0. Also, the “KINOMEscan ElF2AK2/EIF2AK1” value in experiment [5] was 1. Also, in experiment [6], the “KINOMEscan EPHA8” value is 0. Moreover, in experiment [7], the “KINOMEscan MYLK4” value came out at 0. The “KINOMEscan PAK5” value in experiment [8] worked out at 2.
Turning to `Cc1cccc(-c2nc(Nc3ccc4nn(C)cc4c3)c3ccccc3n2)n1` [NK167], the “KINOMEscan CAMK1G” value in experiment [1] is reported as 0. Also, the “KINOMEscan KIT(D816V)” value in experiment [2] was 0. In experiment [3], the “KINOMEscan LRRK2(G2019S)” value stood at 39. Also, the “KINOMEscan CASK” value in experiment [4] stood at 0. In addition, the “KINOMEscan ElF2AK2/EIF2AK1” value in experiment [5] is listed as 0. Besides, the “KINOMEscan EPHA8” value in experiment [6] came to 0. Further, the “KINOMEscan MYLK4” value in experiment [7] is recorded as 0. Also, the “KINOMEscan PAK5” value in experiment [8] turned out to be 0.
